Measurements published in patent publication EP2067489B1, “Glyco-molecular imaging method for grade classification of liver fibrosis and its glyco-molecular imaging agent thereof” (Institute of Nuclear Energy Research Atomic Energy Council, priority 2007, dated 2009).

Experiment: Storage stability at room temperature
Type: physicochemical
Conditions: stability to air and water-deliquescence

O=C(O)CN(CCN1CC(=O)OC(=O)C1)CCN1CC(=O)OC(=O)C1 [DTPA anhydride]
storage time in room temperature: much unstable and easy to water-deliquescent
